Test results: patent US6150393A (priority 1999, dated 2000)

Assays:
[1] = Bar catalepsy test in rats (extrapyramidal side effect analysis); type: in vivo, rat (male Sprague-Dawley); settings: same dosing parameters and protocol; n=10 per dose; data not shown
[2] = tested on: human 5HT2A receptor compared with human 5HT2C receptor; assay: Selectivity for 5HT2A over 5HT2C receptor (as measured by IC50 values); type: binding
[3] = tested on: human mutated 5HT2A receptor, AP-3; assay: Receptor-mediated inositol phosphate (IP3) accumulation, AP-3; type: cell-based
[4] = type: in vivo, rat (male Sprague-Dawley)
Experimental: FIG. 7 provides a graphic summary of the reversal of MK-801-induced hyperactivity using 116081 (7A) and clozapine (7B). […] 116081 produced a significant reversal of the effect of MK-801 at a dose of 25 μmol/kg (10 mg/kg). Results are presented as total activity counts over the 120 min of exposure to the locomotor activity apparatus after administration of MK-801. Data (mean±SEM) were analyzed by ANOVA followed by Dunnett's test (n=6-8/group).
Because part of the symptomatology of schizophrenia may be related to altered glutamate transmission at the NMDA receptor, the reversal of MK-801-induced hyperlocomotor activity in rodents has been used routinely as an animal model for detecting potential antipsychotic activity (O'Neill et al., Pharmacology Biochem. Behav., 63: 237-243, 1999). Thus, this test was used to determine potential antipsychotic properties of 116081 in vivo.
Motor activity was assessed using automated locomotor activity cages as described above (Example 11(A), supra.). Male Sprague-Dawley rats (250-350 g body weight) were administered test compounds (i.p.) and placed in the locomotor activity cages for 30 min of habituation. Following habituation,animals were administered MK-801 (0.5 μmol/kg=0.17 mg/kg, s.c.) and then immediately placed back into the locomotor activity cages, and activity was measured for 120 min. A reversal of MK-801-induced motor activity (as shown by a significant […] of ambulation) in rats is considered to be predictive of the ability of the test compound to reverse psychotic symptoms.

Cn1cc(Br)c(-c2cccc(NC(=O)Nc3ccc(Cl)cc3)c2)n1 [Compound 116081, N-[3-(4-bromo-1-methylpyrazol-3-yl)phenyl][(4-chlorophenyl)amino]carboxamide]
cataleptic response [1]: did not produce a cataleptic response | selectivity preference for the 5HT2A receptor compared with the 5HT2C receptor [2]: 100 fold | IP3 % of Control ([3]; 10 μM test compound, triplicate, control without test compound): 10% | profile in in vitro functional assays ([3]; in vitro functional assays): selective 5HT2A inverse agonist properties | efficacy in reversing motor activity induced by MK-801, compared with clozapine ([4]; FIGS. 7A and 7B): equiefficacious to the atypical antipsychotic clozapine | attenuation of MK-801-induced hyperactivity (ambulations) ([4]; i.p., total activity counts over 120 min after MK-801): dose-dependently attenuated MK801-induced hyperactivity
